The text below walks through data of US12370200B2, “Pharmaceutical composition containing brexanolone, ganaxolone, or zuranolone, and use thereof” (Brii Biosciences, Inc., priority 2019, dated 2025).

A short description of data set [1]: Solubility of brexanolone by visual assessment of dissolution in various solvents. The class given is physicochemical. Conditions: for solubility / solubility at 1 h: thermodynamic from solid; for solubility at 1 h: 40° C. for 1 h. As for the experimental part: Solubility of the supplied brexanolone was determined by visual assessment of dissolution in various solvents at RT (˜22° C.) and 40° C. Aliquots of solvent were added to a fixed amount of brexanolone (˜10 mg) at room temperature until the dissolution point or a maximum volume of 1.8 mL was reached. All samples were then heated to 40° C. for 1 h and dissolution was observed. As shown in Error!

For data set [2] the following is noted: human plasma, after oral administration; cited from earlier work.

In brackets after ≈: the same amount, converted by molar mass. Where two headings read alike, the source gives them in different places. Bounds are passed on as bounds.

As to `CC(=O)[C@H]1CC[C@H]2[C@@H]3CC[C@H]4C[C@H](O)CC[C@]4(C)[C@H]3CC[C@]12C` [brexanolone], the solubility (as a rule, how much of the substance goes into solution per volume) in data set [1] (22 °C, organic solvent or mixture, RT, in MeCN, IPE, MTBE, IPA, MeOH, IPA:water (9:1, v:v), toluene, DMSO, EtOAc (span over these solvents), read-out: moderate solubility at RT) was 6 to 52 mg/mL (≈ 18.8 to 163 mM); in data set [1] (22 °C, organic solvent or mixture, RT, in THF and DCM, read-out: high solubility at RT) it was above 96 mg/mL; in data set [1] (organic solvent or mixture, solvent 2-Propanol (IPA), RT (~22° C.), read-out: Solubility at RT) it was 19 to 49 mg/mL (≈ 59.7 to 154 mM); in data set [1] (organic solvent or mixture, solvent 2-Propanol:water (9:1, v:v), RT (~22° C.), read-out: Solubility at RT) it was 20 to 51 mg/mL (≈ 62.8 to 160 mM); in data set [1] (organic solvent or mixture, solvent Acetonitrile (MeCN), RT (~22° C.), read-out: Solubility at RT), 6 to 10 mg/mL (≈ 18.8 to 31.4 mM); in data set [1] (organic solvent or mixture, solvent Dichloromethane (DCM), RT (~22° C.), read-out: Solubility at RT), 108 to 432 mg/mL (≈ 339 to 1360 mM). Also, the solubility in data set [1] (organic solvent or mixture, solvent Dimethyl sulfoxide (DMSO), RT (~22° C.), read-out: Solubility at RT) was in the range of 20 to 49 mg/mL (≈ 62.8 to 154 mM); in data set [1] (organic solvent or mixture, solvent Ethyl Acetate (EtOAc), RT (~22° C.), read-out: Solubility at RT) it was 21 to 52 mg/mL (≈ 65.9 to 163 mM); in data set [1] (organic solvent or mixture, solvent Isopropyl ether (IPE), RT (~22° C.), read-out: Solubility at RT), 6 to 11 mg/mL (≈ 18.8 to 34.5 mM); in data set [1] (organic solvent or mixture, solvent Methanol (MeOH), RT (~22° C.), read-out: Solubility at RT) it was 19 to 49 mg/mL (≈ 59.7 to 154 mM); in data set [1] (organic solvent or mixture, solvent Methyl t-butyl ether (MTBE), RT (~22° C.), read-out: Solubility at RT), 10 to 20 mg/mL (≈ 31.4 to 62.8 mM); in data set [1] (organic solvent or mixture, solvent Tetrahydrofuran (THF), RT (~22° C.), read-out: Solubility at RT) it was 96 to 384 mg/mL (≈ 301 to 1210 mM). Further, the solubility was 20 to 50 mg/mL (≈ 62.8 to 157 mM) in data set [1] (organic solvent or mixture, solvent Toluene, RT (~22° C.), read-out: Solubility at RT) and below 6 mg/mL in data set [1] (solvent Water, RT (~22° C.), read-out: Solubility at RT). For the same compound, the solubility at 1 h was above 19 mg/mL in data set [1] (organic solvent or mixture, solvent 2-Propanol (IPA)); above 20 mg/mL in data set [1] (organic solvent or mixture, solvent 2-Propanol:water (9:1, v:v)); above 6 mg/mL in data set [1] (organic solvent or mixture, solvent Acetonitrile (MeCN)); above 108 mg/mL in data set [1] (organic solvent or mixture, solvent Dichloromethane (DCM)); above 20 mg/mL in data set [1] (organic solvent or mixture, solvent Dimethyl sulfoxide (DMSO)); above 21 mg/mL in data set [1] (organic solvent or mixture, solvent Ethyl Acetate (EtOAc)). The solubility at 1 h is above 6 mg/mL in data set [1] (organic solvent or mixture, solvent Isopropyl ether (IPE)); above 19 mg/mL in data set [1] (organic solvent or mixture, solvent Methanol (MeOH)); above 10 mg/mL in data set [1] (organic solvent or mixture, solvent Methyl t-butyl ether (MTBE)); above 96 mg/mL in data set [1] (organic solvent or mixture, solvent Tetrahydrofuran (THF)); above 20 mg/mL in data set [1] (organic solvent or mixture, solvent Toluene); below 6 mg/mL in data set [1] (solvent Water). The Solubility (in general, the dissolved amount per volume that the medium holds) at RT in data set [1] (solvent Water, RT (~22° C.)) was below 6 mg/mL.

Consider `CC(=O)[C@H]1CC[C@H]2[C@@H]3CC[C@H]4C[C@](C)(O)CC[C@]4(C)[C@H]3CC[C@]12C` [Ganaxolone, ganaxolone], for which the half-life entry in data set [2] is given as “approximately 20 hours”.
